Test systems include HCC-2998 colon; HOP-62 NSCLC; HS 578T breast; MALME-3M melanoma; MOLT-4 leukemia; NCI/ADR-RES ovarian; SR leukemia; SW-620 colon; UACC-62 melanoma; UO-31 renal.
Assay in all cases: NCI anticancer screen, dose series, 48 h

SMILES strings stand for the structures. “And” between values parts separate entries of the source, which are not always exact repeats. Identical values can stand only once.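 Test compounds were applied to cells in 96-well plates for 48 hours at 5 doses. At the GI50, growth is halved. Definition used: TGI = concentration required for complete inhibition of growth.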 Some results are limits rather than exact numbers.

As for `CN(C)S(=O)(=O)c1cccc(C(=O)Nc2nc(-c3ccc(F)c(F)c3)cs2)c1`, the GI50 was 58.9 µM with HCC-2998 colon; 12.7 µM in the test with HOP-62 NSCLC; 14.2 µM with HS 578T breast; 18.6 µM in the test on MALME-3M melanoma; 3.52 µM with MOLT-4 leukemia; 5.32 µM with NCI/ADR-RES ovarian. Moreover, the GI50 was 6.17 µM in the test with SR leukemia, 47.9 µM in the test with SW-620 colon, 7.81 µM with UACC-62 melanoma and 9.09 µM with UO-31 renal. For the same compound, the TGI in the test with HCC-2998 colon is above 100 µM; with HOP-62 NSCLC it was above 100 µM; with HS 578T breast, 91 µM; in the test on MALME-3M melanoma, 99.4 µM; in the test on MOLT-4 leukemia, above 55.2 µM; with NCI/ADR-RES ovarian it was above 100 µM. For the same compound, the TGI in the test with SR leukemia, in the test on SW-620 colon, in the test with UACC-62 melanoma and in the test with UO-31 renal was above 100 µM throughout.

For the compound `CCc1nc(N)nc(N)c1C#CC(C)c1ccc(-c2ccncc2)cc1Cl` (centres undefined), the GI50 was 0.0869 µM and 0.134 µM with HCC-2998 colon; 0.0266 µM and 0.0528 µM with HOP-62 NSCLC; 0.687 µM and 2.25 µM in the test with HS 578T breast; 0.0378 µM and 0.307 µM with MALME-3M melanoma; 0.0276 µM and 0.0493 µM in the test on MOLT-4 leukemia; 0.0096 µM and 0.0366 µM with NCI/ADR-RES ovarian. The GI50 in the test with SW-620 colon is below 0.005 µM; with UACC-62 melanoma, < 0.005 µM and 0.0186 µM; with UO-31 renal, 0.0227 µM and 0.073 µM. The TGI is 4.07 µM and 13.1 µM with HCC-2998 colon; 1.92 µM and 13.9 µM with HOP-62 NSCLC; 3.47 µM and 19.9 µM with HS 578T breast; 1.93 µM and 13.1 µM with MALME-3M melanoma; 4.62 µM and 8.45 µM with MOLT-4 leukemia; 5.11 µM and 9.3 µM in the test on NCI/ADR-RES ovarian. Also, the TGI in the test on SR leukemia is 2.27 µM and 6.27 µM; with SW-620 colon, 6.58 µM and 14.9 µM; in the test with UACC-62 melanoma it was 4.39 µM and 10.9 µM; in the test on UO-31 renal, 1.47 µM and 13.5 µM.

On to `COc1ccc(-c2nc(NC(=O)CS(=O)(=O)c3ccc(F)cc3)sc2C)cc1`, for which the GI50 in the test with HCC-2998 colon is 26 µM; in the test with HOP-62 NSCLC, 22.4 µM; in the test on HS 578T breast, 14.8 µM; with MALME-3M melanoma, 23 µM; in the test on MOLT-4 leukemia it was 14.5 µM; in the test with NCI/ADR-RES ovarian, 17.4 µM. In addition, the GI50 with SR leukemia is 4.32 µM; with SW-620 colon, 13.7 µM; with UACC-62 melanoma, 13.1 µM; with UO-31 renal, 18.9 µM. The TGI was 94.7 µM in the test with HCC-2998 colon; 87.1 µM in the test with HOP-62 NSCLC; 63.3 µM in the test with HS 578T breast; 66.4 µM with MALME-3M melanoma; above 100 µM in the test on MOLT-4 leukemia; above 100 µM in the test on NCI/ADR-RES ovarian. Besides, the TGI was 46.1 µM with SR leukemia, above 100 µM in the test with SW-620 colon, 32.9 µM in the test with UACC-62 melanoma and 92 µM in the test with UO-31 renal.

As for `Cc1cc(NC(=O)NCCOc2ccc(N3C(N)=NC(N)=NC3(C)C)cc2Cl)ccc1S(=O)(=O)F`, the GI50 was 2.96 µM with HCC-2998 colon; 8.36 µM in the test with HOP-62 NSCLC; 9.84 µM in the test on HS 578T breast; 7.46 µM in the test on MALME-3M melanoma; 4.31 µM in the test with MOLT-4 leukemia; above 100 µM in the test on NCI/ADR-RES ovarian. The GI50 is 0.493 µM in the test on SR leukemia, 0.661 µM in the test with SW-620 colon, 0.726 µM with UACC-62 melanoma and above 100 µM in the test with UO-31 renal. The TGI in the test on HCC-2998 colon is above 100 µM; in the test on HOP-62 NSCLC, above 73.2 µM; with HS 578T breast, 76.8 µM; in the test on MALME-3M melanoma, 41.1 µM; in the test with MOLT-4 leukemia, above 100 µM; in the test with NCI/ADR-RES ovarian it was above 100 µM. For the same compound, the TGI in the test with SR leukemia is 40 µM; with SW-620 colon, above 100 µM; in the test on UACC-62 melanoma, 35.2 µM; in the test on UO-31 renal, above 100 µM.

`CN1CCN(C2=C(Cl)C(=O)c3ccccc3C2=O)CC1`: the GI50 was 2.05 µM with HCC-2998 colon; 2.04 µM in the test with HOP-62 NSCLC; 1.84 µM in the test with HS 578T breast; 1.81 µM in the test with MALME-3M melanoma; 2.2 µM in the test on MOLT-4 leukemia; 2.03 µM in the test on NCI/ADR-RES ovarian. Also, the GI50 is 3.42 µM in the test on SR leukemia, 1.67 µM in the test with SW-620 colon, 1.65 µM in the test with UACC-62 melanoma and 1.22 µM with UO-31 renal. For the same compound, the TGI in the test with HCC-2998 colon is 4.51 µM; in the test on HOP-62 NSCLC it was 5.12 µM; in the test on HS 578T breast, 4.84 µM; with MALME-3M melanoma it was 3.51 µM; with MOLT-4 leukemia, 8.26 µM; in the test with NCI/ADR-RES ovarian it was 4.57 µM. The TGI was above 27.3 µM with SR leukemia, 3.23 µM in the test on SW-620 colon, 3.11 µM in the test on UACC-62 melanoma and 2.63 µM in the test with UO-31 renal.

For `CC(C)(C)OC(=O)N(CCCCN(CCCn1c2c(c3ccccc3c1=O)C(=O)c1ccccc1-2)C(=O)OC(C)(C)C)CCCn1c2c(c3ccccc3c1=O)C(=O)c1ccccc1-2`, the GI50 in the test with HCC-2998 colon is 10.9 µM; with HOP-62 NSCLC, 11 µM; in the test on HS 578T breast, 13.1 µM; with MALME-3M melanoma it was above 100 µM; with MOLT-4 leukemia, above 100 µM; in the test with NCI/ADR-RES ovarian, 30.1 µM. The GI50 in the test with SR leukemia is 0.304 µM; with SW-620 colon, 32.3 µM; in the test on UACC-62 melanoma it was 92.8 µM; in the test with UO-31 renal it was 28.4 µM. For the same compound, the TGI in the test with HCC-2998 colon is 41 µM; in the test with HOP-62 NSCLC, 73.8 µM; in the test on HS 578T breast it was 59.6 µM; with MALME-3M melanoma, above 100 µM; in the test with MOLT-4 leukemia, above 100 µM; in the test on NCI/ADR-RES ovarian it was above 100 µM. Further, the TGI with SR leukemia, with SW-620 colon, in the test on UACC-62 melanoma and in the test on UO-31 renal was above 100 µM throughout.

For `O=C(O)CCC(O)=C1S(=O)(=O)OCCOS1(=O)=O`, the TGI in the test with HCC-2998 colon, in the test with HOP-62 NSCLC, in the test with HS 578T breast, with MALME-3M melanoma, in the test with MOLT-4 leukemia and in the test with NCI/ADR-RES ovarian was above 100 µM each time. Moreover, the TGI in the test on SR leukemia, with SW-620 colon, in the test with UACC-62 melanoma and in the test on UO-31 renal was above 100 µM throughout.

Take `COc1ccc2nc3cc(Cl)ccc3c(Nc3ccccc3-c3ccccc3Nc3c4ccc(Cl)cc4nc4ccc(OC)cc34)c2c1`: the TGI in the test on HCC-2998 colon is above 67.5 µM; with HOP-62 NSCLC, above 94.9 µM; with HS 578T breast, above 100 µM; in the test with MALME-3M melanoma it was 68.6 µM; with MOLT-4 leukemia, above 69.4 µM; in the test on NCI/ADR-RES ovarian, above 100 µM. For the same compound, the TGI in the test on SR leukemia was above 66.8 µM; in the test with SW-620 colon it was above 68.2 µM; in the test on UACC-62 melanoma it was above 66.3 µM; in the test with UO-31 renal, above 100 µM.
